Experimental data from article PMC8151892, “Partial Agonist Activity of Neonicotinoids on Rat Nicotinic Receptors: Consequences over Epinephrine Secretion and In Vivo Blood Pressure” (International Journal of Molecular Sciences, 2021).

Molecular target: T1, α3β4 nicotinic acetylcholine receptor (α3 subunit) (Rattus norvegicus, UniProt P04757+P12392)
T1 construct: gene Chrna3; complete open reading frames of rat α3 and β4 subunits, RNA 1:1, Xenopus oocytes; with nAChR β4 subunit (Chrnb4)
Assay: two-electrode voltage clamp in Xenopus oocytes (partial agonist)
Type: cell-based

T1 sequence (P04757 26-499): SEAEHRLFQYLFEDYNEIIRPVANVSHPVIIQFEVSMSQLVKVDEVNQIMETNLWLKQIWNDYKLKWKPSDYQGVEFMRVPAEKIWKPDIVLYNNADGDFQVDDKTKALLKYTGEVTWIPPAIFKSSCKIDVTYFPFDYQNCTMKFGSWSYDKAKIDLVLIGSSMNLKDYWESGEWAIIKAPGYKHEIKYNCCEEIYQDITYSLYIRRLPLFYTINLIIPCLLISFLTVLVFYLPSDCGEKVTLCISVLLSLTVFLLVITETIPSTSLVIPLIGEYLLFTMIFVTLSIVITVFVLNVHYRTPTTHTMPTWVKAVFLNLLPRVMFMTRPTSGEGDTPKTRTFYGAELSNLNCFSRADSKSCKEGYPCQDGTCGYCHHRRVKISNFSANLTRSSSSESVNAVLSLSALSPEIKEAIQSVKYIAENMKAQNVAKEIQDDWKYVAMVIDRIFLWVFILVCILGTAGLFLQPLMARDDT
T1 sequence (P12392 21-495): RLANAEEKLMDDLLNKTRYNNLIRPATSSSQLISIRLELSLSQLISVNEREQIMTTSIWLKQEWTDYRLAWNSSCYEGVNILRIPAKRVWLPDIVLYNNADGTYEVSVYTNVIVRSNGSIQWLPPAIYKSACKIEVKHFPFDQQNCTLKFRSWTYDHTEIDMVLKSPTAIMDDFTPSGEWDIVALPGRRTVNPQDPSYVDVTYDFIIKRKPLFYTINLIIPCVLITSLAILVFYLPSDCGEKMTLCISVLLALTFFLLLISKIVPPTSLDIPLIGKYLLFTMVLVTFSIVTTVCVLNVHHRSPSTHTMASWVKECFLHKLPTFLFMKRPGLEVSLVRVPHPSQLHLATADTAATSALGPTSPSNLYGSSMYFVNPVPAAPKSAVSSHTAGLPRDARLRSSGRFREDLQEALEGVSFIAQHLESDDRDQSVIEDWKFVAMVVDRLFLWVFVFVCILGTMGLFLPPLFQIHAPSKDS

Which EC50 does the source give for `CN/C(=N\[N+](=O)[O-])NCc1cnc(Cl)s1` [CLO, clothianidin] here?
The EC50 was 8.39 ± 0.77 mM.
